# Where “and” joins values, the source holds several entries; their conditions need not be identical. Identical values can stand only once. Like-named read-outs stand apart in the source and are kept apart here.
# How the values were obtained:
# [1] = test system: fibrin- and LPS-induced microglia activation; assay: cells; format: cell-based, rat
# primary rat microglia = assay: Cell toxicity (dead cells, size <150 μm2) in coated fibrin (cFib) assay; settings: primary microglia HTS;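 note: share of dead cells sized under 150 µm2 at 10 µM in fibrin-stimulated microglia HTS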
# [2] = test system: LPS-induced microglia activation; assay: Image-based assay of LPS-induced microglia activation (HTS and dose response); format: cell-based, rat; settings: for inhibition at 10 µM: read-out: LPS % inhibition
# [3] = test system: fibrin-induced microglia activation; assay: Image-based assay of fibrin-induced microglia activation (HTS and dose response); format: cell-based, rat; settings: for inhibition at 10 µM: read-out: Fibrin % inhibition
# [4] = quadrant by fibrin and LPS inhibition, HTS at 10 μM
# [5] = fibrin assay, dead cells (size <150 μm2)
# [6] = Rattus norvegicus, Microglia, primary microglia HTS, LPS stimulation, compounds at 10 μM
# [7] = primary microglia HTS, LPS stimulation, compounds at 10 μM, 10 µM
# [8] = classification by fibrin and LPS inhibition, HTS at 10 μM
# [9] = fibrin assay, dead cells (size <150 μm2), compounds at 10 μM
# [10] = classification by fibrin and LPS inhibition in HTS
# [11] = Rattus norvegicus, Microglia, primary microglia HTS, 10 μM, fibrin-stimulated, cell size >800 μm^2 as marker of activation
# [12] = HTS of 1907 compounds, quadrant by fibrin and LPS inhibition
# [13] = Rattus norvegicus, Microglia, primary microglia HTS, 10 μM, LPS-stimulated, cell size >800 μm^2 as marker of activation
# [14] = Hill slope of fibrin dose response, Table 7
# [15] = Table 7, fib = fibrin, LPS, tox = toxicity
# [16] = Hill slope of LPS dose response, Table 7
# [17] = Rattus norvegicus, Microglia, Table 7, read-out: fib_IC50
# [18] = Rattus norvegicus, Microglia, Table 7, read-out: LPS_IC50
# [19] = quadrant by fibrin and LPS inhibition in HTS of 1907 compounds
compound,measurement,setting,value
C[C@@H]1[C@H](O)[C@@H](C)/C=C/C=C/C=C/C=C/C=C/C=C/C=C/[C@H](O[C@@H]2O[C@H](C)[C@@H](O)[C@H](N)[C@@H]2O)C[C@@H]2O[C@](O)(C[C@@H](O)C[C@@H](O)[C@H](O)CC[C@@H](O)C[C@@H](O)CC(=O)O[C@H]1C)C[C@H](O)[C@H]2C(=O)O [Amphotericin B],Quadrant (FIG. 5b),[1]; [4],Q4
same,Fibrin % cell toxicity,primary rat microglia; [5],1%
O=C1CN2Cc3c(ccc(Cl)c3Cl)N=C2N1 [Anagrelide],Quadrant (FIG. 5b),[1]; [4],Q4
same,Fibrin % cell toxicity,primary rat microglia; [5],1%
CN(C)C(=O)Oc1cc(OC(=O)N(C)C)cc(C(O)CNC(C)(C)C)c1 (centres unmarked) [Bambuterol],Quadrant (FIG. 5b),[1]; [4],Q4
same,Fibrin % cell toxicity,primary rat microglia; [5],1%
same,inhibition at 10 µM,[2]; [6],9%
same,LPS % inhibition,[2]; [7],13%
C[C@H]1O[C@@H](O[C@H]2[C@@H](O)C[C@H](O[C@H]3[C@@H](O)C[C@H](O[C@H]4CC[C@@]5(C)[C@H](CC[C@@H]6[C@@H]5CC[C@]5(C)[C@@H](C7=CC(=O)OC7)CC[C@]65O)C4)O[C@@H]3C)O[C@@H]2C)C[C@H](O)[C@@H]1O [Digitoxin],Quadrant (FIG. 5b),[1]; [8],Q4
same,Fibrin % cell toxicity,primary rat microglia; [9],1%
CCN(CC)C(=O)/C(C#N)=C/c1cc(O)c(O)c([N+](=O)[O-])c1 [Entacapone],Quadrant (FIG. 5b),[1]; [8],Q4
same,Fibrin % cell toxicity,primary rat microglia; [9],1%
same,inhibition at 10 µM,[2]; [6],11%
same,LPS % inhibition,[2]; [7],17%
COc1ccc2[nH]c([S+]([O-])Cc3ncc(C)c(OC)c3C)nc2c1 (centres unmarked) [Esomeprazole; Omeprazole],Quadrant (FIG. 5b),[1]; [8],Q4
same,Fibrin % cell toxicity,primary rat microglia; [9],0% and 1%
same,LPS % inhibition,[2]; [7],24% and 13%
C#C[C@]1(OC(C)=O)CC[C@H]2[C@@H]3CCC4=C[C@@H](OC(C)=O)CC[C@@H]4[C@H]3CC[C@@]21C [Ethynodiol Diacetate],Quadrant (FIG. 5b),[1]; [8],Q4
same,Fibrin % cell toxicity,primary rat microglia; [9],1%
C[C@@H]1CN(c2c(F)c(N)c3c(=O)c(C(=O)O)cn(C4CC4)c3c2F)C[C@H](C)N1 [Sparfloxacin],Quadrant (FIG. 5b),[1]; [10],Q4
same,Fibrin % cell toxicity,"primary rat microglia; fibrin stimulation, cell size <150 μm2 as marker of toxicity",0% and 1%
same,inhibition at 10 µM,"[2]; Rattus norvegicus, Microglia, 48 h",11%
CN(N=O)C(=O)N[C@@H](C=O)[C@@H](O)[C@H](O)[C@H](O)CO [Streptozocin],inhibition at 10 µM,"[3]; Rattus norvegicus, Microglia",-30%
same,Quadrant (FIG. 5b),[1],Q4
same,inhibition at 10 µM,"[2]; Rattus norvegicus, Microglia",19%
Cc1cc(NS(=O)(=O)c2ccc(N)cc2)no1 [Sulfamethoxazole],inhibition at 10 µM,"[3]; Rattus norvegicus, Microglia",-17%
same,Quadrant (FIG. 5b),[1],Q4
same,inhibition at 10 µM,"[2]; Rattus norvegicus, Microglia",17%
Nc1ccc(S(N)(=O)=O)cc1 [Sulfanilamide],inhibition at 10 µM,"[3]; Rattus norvegicus, Microglia",-14%
same,Quadrant (FIG. 5b),[1],Q4
same,inhibition at 10 µM,"[2]; Rattus norvegicus, Microglia",11%
CC/C(=C(\c1ccccc1)c1ccc(OCCN(C)C)cc1)c1ccccc1 [Tamoxifen],inhibition at 10 µM,"[3]; Rattus norvegicus, Microglia",14%
same,Quadrant (FIG. 5b),[1],Q4
same,inhibition at 10 µM,"[2]; Rattus norvegicus, Microglia",5%
CC(C)(C)c1ccc(C(O)CCCN2CCC(C(O)(c3ccccc3)c3ccccc3)CC2)cc1 (centres unmarked) [Terfenadine],inhibition at 10 µM,"[3]; Rattus norvegicus, Microglia",19%
same,Quadrant (FIG. 5b),[1],Q4
same,inhibition at 10 µM,"[2]; Rattus norvegicus, Microglia",7%
CCC(=O)O[C@H]1CC[C@H]2[C@@H]3CCC4=CC(=O)CC[C@]4(C)[C@H]3CC[C@]12C [Testosterone Propionate],inhibition at 10 µM,[3]; [11],21%
same,Quadrant (FIG. 5b),[1]; [12],Q4
same,inhibition at 10 µM,[2]; [13],8%
C[C@]12CC[C@H]3[C@@H](CCC4=CC(=O)CC[C@@]43C)[C@@H]1CC[C@@H]2O [Testosterone],inhibition at 10 µM,"[3]; Rattus norvegicus, Microglia",-1%
same,Quadrant (FIG. 5b),[1],Q4
same,inhibition at 10 µM,"[2]; Rattus norvegicus, Microglia",5%
Nc1nc2nc[nH]c2c(=S)[nH]1 [Tioguanine],inhibition at 10 µM,"[3]; Rattus norvegicus, Microglia",12%
same,Quadrant (FIG. 5b),[1],Q4
same,inhibition at 10 µM,"[2]; Rattus norvegicus, Microglia",18%
CCC1=C[C@@H]2CN(C1)Cc1c([nH]c3ccccc13)[C@@](C(=O)OC)(c1cc3c(cc1OC)N(C)[C@H]1[C@@](O)(C(=O)OC)[C@H](OC(C)=O)[C@]4(CC)C=CCN5CC[C@]31[C@@H]54)C2 [Vinorelbine],inhibition at 10 µM,[3]; [11],-12%
same,inhibition at 10 µM,"[3]; Rattus norvegicus, Microglia, primary microglia HTS, fibrin stimulation, compounds at 10 μM",108%
same,Quadrant (FIG. 5b),[1]; [12],Q4
same,Quadrant (FIG. 5b),[1]; [4],Q2
same,inhibition at 10 µM,[2]; [13],-11%
same,inhibition at 10 µM,[2]; [6],106%
O=C1O[C@H]([C@@H](O)CO)C(O)=C1O [Vitamin C],Fibrin % inhibition,"[3]; primary microglia HTS, 10 μM, fibrin-stimulated, cell size >800 μm^2 as marker of activation",−28%
same,Quadrant (FIG. 5b),[1]; [12],Q4
same,LPS % inhibition,"[2]; primary microglia HTS, 10 μM, LPS-stimulated, cell size >800 μm^2 as marker of activation",18%
COc1cc([C@@H]2c3cc4c(c(O)c3C[C@H]3COC(=O)[C@@H]32)OCO4)cc(OC)c1OC [beta-peltatin],fib_HS,[3]; [14],−2.10
same,fib specificity,[3]; Table 7,0.5
same,IC50,"[3]; Table 7, read-out: fib_IC50",0.505 µM
same,Activity,[1]; [15],fib/LPS
same,LPS_HS,[2]; [16],−1.50
same,LPS specificity,[2]; Table 7,2.0
same,IC50,"[2]; Table 7, read-out: LPS_IC50",0.252 µM
O=C1C=C2CC3(O)COc4cc(O)ccc4C3=C2C=C1O (centres unmarked) [brazilein],IC50,[3]; [17],1.47 µM
same,Activity,[1]; [15],fib/LPS
same,IC50,[2]; [18],2.17 µM
Cn1nnnc1SCC1=C(C(=O)O)N2C(=O)[C@@H](NC(=O)[C@H](O)c3ccccc3)[C@H]2SC1 [cefamandole sodium],IC50,[3]; [17],0.052 µM
same,Activity,[1]; [15],fib/LPS
same,IC50,[2]; [18],0.002 µM
C[C@@H]1CCC[C@H](C)N1NC(=O)c1ccc(Cl)c(S(N)(=O)=O)c1 [clopamide],IC50,[3]; [17],0.003 µM
same,Activity,[1]; [15],fib/LPS
same,IC50,[2]; [18],0.002 µM
COc1cc2c(c(OC)c1OC)-c1ccc(=O)c(O)cc1[C@@H](NC(C)=O)CC2 [colchiceine],IC50,[3]; [17],0.625 µM
same,Activity,[1]; [15],fib/LPS
same,IC50,[2]; [18],0.82 µM
C=C[C@@]1(C)CC(=O)[C@]2(O)[C@@]3(C)[C@@H](O)CCC(C)(C)[C@@H]3[C@H](O)[C@H](OC(C)=O)[C@@]2(C)O1 [colforsin],IC50,[3]; [17],2.08 µM
same,Activity,[1]; [15],fib/LPS
same,IC50,[2]; [18],1.35 µM
CO[C@@H]1C[C@@H](C[C@H]2CC[C@H](C)[C@H]([C@@H](C)C(=O)O)O2)O[C@]2(O[C@](C)([C@H]3CC[C@@](C)([C@@H]4O[C@@H]([C@H]5O[C@@](O)(CO)[C@H](C)C[C@@H]5C)C[C@@H]4C)O3)C[C@H]2C)[C@@H]1C [nigericin sodium],IC50,[3]; [17],0.206 µM
same,Activity,[1]; [15],fib/LPS
same,IC50,[2]; [18],0.065 µM
"Adipic Acid, Hexanedioic Acid",Fibrin % inhibition,"[3]; primary microglia HTS, fibrin stimulation, compounds at 10 μM",−24%
same,Quadrant (FIG. 5b),[1]; [4],Q4
same,LPS % inhibition,"[2]; primary microglia HTS, LPS stimulation, compounds at 10 μM",8%
Beta-escin,Fibrin % inhibition,"[3]; primary HTS, 10 μM, fibrin-stimulated primary microglia",−11%
same,Quadrant (FIG. 5b),"[1]; primary HTS, 10 μM",Q4
same,LPS % inhibition,"[2]; primary HTS, 10 μM, LPS-stimulated primary microglia",11%
FluoromethoIone [reference compound],fib_HS,[3]; [14],−0.27
same,fib specificity,[3]; Table 7,1.0
same,Quadrant (FIG. 5b),"[1]; Table 2, screen at 10 μM",Q2
same,Activity,[1]; [15],fib/LPS
same,LPS_HS,[2]; [16],0.00
same,LPS specificity,[2]; Table 7,1.0
Hexylene Glycol,Fibrin % inhibition,"[3]; primary microglia HTS, fibrin stimulation, activation = cell size >800 μm2",−8%
same,Quadrant (FIG. 5b),[1]; [19],Q4
same,LPS % inhibition,"[2]; primary microglia HTS, LPS stimulation, activation = cell size >800 μm2",12%
Hydrocortisone sodium phosphate [reference compound],fib specificity,[3],1.3
same,fib_HS,[3],−0.52
same,IC50,[3]; read-out: fib_IC50,0.128 µM
same,Activity,[1],fib/LPS
same,Quadrant (FIG. 5b),[1],Q2
same,LPS specificity,[2],0.8
same,LPS_HS,[2],−0.69
same,IC50,[2]; read-out: LPS_IC50,0.161 µM
Medroxyprogesterone [reference compound],IC50,"[3]; Table 1, dose response 0.001-20 μM, triplicates, primary rat microglia, 48 h, read-out: Fibrin IC50",> 20 µM
same,IC50,"[3]; dose response, fibrin-induced microglia activation, read-out: Fibrin IC50",> 20 µM
same,IC50,"[3]; fibrin-induced microglia activation, dose response, read-out: Fibrin IC50 (uM) (Suppl. Table 7)",> 20 µM
same,Fibrin % inhibition,"[3]; primary microglia HTS, fibrin stimulation, increased cell size (>800 μm^2) as marker of activation",61%
same,Quadrant (FIG. 5b),[1]; [12],Q3
same,Quadrant (FIG. 5b),"[1]; Table 1, screen at 10 μM",Q3
same,Quadrant (FIG. 5b),[1]; [19],Q3
same,IC50,"[2]; LPS-induced microglia activation, dose response, read-out: LPS IC50 (uM) (Suppl. Table 7)",8 µM
same,IC50,"[2]; Table 1, dose response 0.001-20 μM, triplicates, primary rat microglia, 48 h, read-out: LPS IC50",8 µM
same,IC50,"[2]; dose response, LPS-induced microglia activation, read-out: LPS IC50",8 µM
same,LPS % inhibition,"[2]; primary microglia HTS, LPS stimulation, increased cell size (>800 μm^2) as marker of activation",6%
Oxolamine Citrate,Fibrin % inhibition,[3],−1%
same,Quadrant (FIG. 5b),[1],Q4
same,LPS % inhibition,[2],10%
Spiramycin,Fibrin % inhibition,"[3]; primary microglia HTS, fibrin stimulation, cell size >800 μm2 as marker of activation",17%
same,Quadrant (FIG. 5b),[1]; [10],Q4
same,LPS % inhibition,[2],14%
neomycin sulfate,fib specificity,[3],2.2
same,fib_HS,[3],−0.75
same,IC50,[3]; read-out: fib_IC50,2.3 µM
same,Activity,[1],fib/LPS
same,LPS specificity,[2],0.5
podophyllotoxin acetate,fib_HS,[3]; [14],−1.10
same,fib specificity,[3]; Table 7,0.5
same,Activity,[1]; [15],fib/LPS
same,LPS_HS,[2]; [16],−0.87
same,LPS specificity,[2]; Table 7,1.8
same,IC50,"[2]; Table 7, read-out: LPS_IC50",0.012 µM
